# From PubChem BioAssay (NCI)
#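 Test compounds were applied to cells in 96-well plates for 48 hours at 5 doses. GI50 = concentration required for 50% inhibition of growth. TGI denotes the concentration required for complete inhibition of growth.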
# Legend:
# Assay in all cases: NCI tumour cell line growth inhibition, 48 h
# [1] = system: DLD-1 colon
# [2] = system: DMS 273 small cell lung
# [3] = system: SNB-78 CNS
# [4] = system: P388 leukemia
# [5] = system: SN12K1 renal
# [6] = system: DMS 114 small cell lung
# [7] = system: XF 498 CNS
# [8] = system: KM20L2 colon
# [9] = system: M19-MEL melanoma
# [10] = system: P388/ADR leukemia
# [11] = system: LXFL 529 NSCLC
Compound,TGI [1],TGI [2],TGI [3],TGI [4],TGI [5],TGI [6],TGI [7],TGI [8],TGI [9],TGI [10],TGI [11],GI50 [1],GI50 [2],GI50 [3],GI50 [8],GI50 [11]
O=C1CCCn2c3ccccc3c3ccnc1c32,> 100 µM,> 100 µM,> 100 µM,> 93.9 µM,> 100 µM,> 100 µM,74.5 µM,> 100 µM,> 100 µM,> 100 µM,–,–,–,–,–,–
COc1ccc(/C=N/N=C(N)N)c(C(=O)O)c1OC,–,> 100 µM,> 100 µM,–,–,> 100 µM,–,> 100 µM,–,–,> 100 µM,–,–,–,–,–
N.N.NCCCCN.O=C([O-])CCl.O=C([O-])CCl.O=C([O-])CCl.O=C([O-])CCl.[Pt+4].[Pt+4],> 50 µM,> 50 µM,> 50 µM,–,–,–,–,> 50 µM,–,–,> 50 µM,> 50 µM,36 µM,> 50 µM,> 50 µM,> 50 µM
